Results on two molecules are retold here after patent US12257292B2, “Enhanced delivery of antioxidants for treatment of central nervous system disorders involving oxidative stress” (Beyond Barriers Therapeutics, Inc., priority 2017, dated 2025).

For data set [1], the system named is glutathione in the brain. The data set is described as follows: Glutathione (GSH) levels in whole-brain homogenates by LC/MS after intranasal or oral NAC. Format: in vivo, male Sprague-Dawley rats. As to conditions: for glutathione in the brain compared to vehicle control (IN PBS): 0.5 hours and 2 hours following administration. The protocol:
(§1) In this example, a study was conducted to evaluate the pharmacokinetics of N-acetyl cysteine administered in an intranasal formulation. The study also evaluated the effectiveness on intranasally administered NAC to increase glutathione concentration in the brain.
(§2) C13-labelled N-acetyl L-cysteine (purchased from Cambridge Isotope Laboratories) was used to prepare formulations in phosphate-buffered saline (PBS) for the study. The subjects for the study were male Sprague-Dawley rats weighing approximately 250 grams, and 39 animals were separated into four groups, as shown in Table 1. The animals in the study groups were administered either an intranasal (IN) dose or an oral (PO) dose of N-acetyl cysteine via gavage, as shown in Table 1. Group 1 and group 2 were administered one 20 μl, intranasal injection. Group 3 was administered a single oral dose of 500 μL. Group 4 was administered two separate 10 μL intranasal injections (one per nostril).
The animals were fasted the night prior to the study and were anesthetized using a cocktail of ketamine/xylazine before administration of the study formulation. The rats were left on their sides for 15 minutes after administration of the study formulation. The animals were observed post administration, and at least once a day, more if deemed necessary, during the pre-treatment and treatment periods for mortality and morbidity. In particular, signs of ill health were based on body weight loss, change in appetite, and behavioral changes such as altered gait, lethargy and gross manifestations of stress.
Three animals from each Group were sacrificed at the established time points (0.5 hour, 1.0 hour and 2.0 hour), and whole brains from the sacrificed animals were collected for analysis. 3 animals from Group 3 were also sacrificed pre-dose and analyzed. The brain samples were stored at −80° C. freezer until sample analysis. Homogenates of the brain samples were prepared and analyzed, and glutathione (GSH) levels in the brain samples were measured by LC/MS.

The conditions of data set [2]: orally administered; cited from earlier work.
Details of data set [3]: species or system male Sprague-Dawley rats. To be noted: rat, in vivo, 20 mg/kg. The protocol: as §1
as §2, with “nostril). […]” for “nostril).”
Three animals from each Group were sacrificed at the established time points (0.5 hour, 1.0 hour and 2.0 hour), and whole brains from the sacrificed animals were collected for analysis. 3 animals from Group 3 were also sacrificed pre-dose and analyzed. […] Homogenates of the brain samples were prepared and analyzed, and glutathione (GSH) levels in the brain samples were measured by LC/MS.

Data set [4] relates to blast induced mild traumatic brain injury. To be noted: orally administered, cited from earlier work.
In data set [5] the test system is traumatic brain injury. To be noted: cited from earlier work.
The test system of data set [6] is traumatic brain injury. As to conditions: more than 20 preclinical studies; cited from earlier work.

As for `CC(=O)N[C@@H](CS)C(=O)O` [NAC, N-acetylcysteine], the “raising glutathione levels in the brain, intranasal compared with oral NAC” value in data set [1] (intranasal 20 mg/kg vs oral (PO) 20 mg/kg, rat whole brain, FIG. 1) is on record as “as effective as oral NAC”. Besides, the “increased GSH concentration in the brain, IN NAC vs IN PBS group” value in data set [1] (intranasal 20 mg/kg, 2 hour point, p=0.033, Student's T-test, planned comparison) was “statistically significant”. Besides, the “glutathione in the brain compared to vehicle control (IN PBS)” value in data set [1] (intranasal NAC 20 mg/kg) and in data set [1] (oral NAC 20 mg/kg) was “Clear trends for increased glutathione” throughout. Further, the adverse effects result in data set [2] was “may cause nausea, vomiting and diarrhea”. Besides, the “concentration of isotope labeled NAC in brain tissue following administration” value in data set [3] is “did not detect an increase”. For the same molecule, the “severity and resolution of sequelae of blast induced mild traumatic brain injury” value in data set [4] (81 active duty service members) was “beneficial effects”. In addition, the “reducing the symptoms of mild-moderate traumatic brain injury in human patients” value in data set [4] is “effective”.
Take erythropoietin: the “increase of the incidence of deep venous thrombosis of the lower limbs” value in data set [5] (in vivo) is “did not”. For the same molecule, the “number of patients with severe neurological dysfunction (GOS-E level 1-4)” value in data set [5] (large multi-center randomized controlled trial) is given as “did not reduce”. Also, in data set [6], the “outcome following traumatic brain injury” value was “improves outcome”.
